Experimental data reported in PMC6348443 (Journal of Medicinal Chemistry, 2018).
Where a name gives a salt, the structure may show the parent alone.

What was measured:
MOR [1] = target: T1, MOR (Homo sapiens, UniProt P35372); test: [35S]GTPγS binding assay, CHO-hMOR membranes; type: biochemical; settings: for EC50: [35S]GTPγS, CHO human MOR membranes, read-out: MOR EC50; for Emax: read-out: MOR % stim.
T1 construct: host or cells: CHO (CHO-hMOR)
Protocol: (§1) Efficacies are presented as percentage stimulation relative to the standard full agonists, [D-Ala^2,N-Me-Phe4,Gly-ol^5]enkephalin (DAMGO for MOR),[53] [D-Pen^2,D-Pen^5]enkephalin (DPDPE for DOR)[54] and N-methyl-2-phenyl-N-[(5R,7S,8S)-7-(pyrrolidin-1-yl)-1-oxaspiro[4.5]dec-8-yl]acetamide (U69,593 for KOR).[55]
(§2) Membranes from CHO cells expressing human opioid receptors were prepared in 50 mM Tris-HCl buffer (pH 7.7) according to a previously described procedure.[64] Cells expressing human opioid receptors grown at confluence were removed from the culture plates by scraping, homogenized in 50 mM Tris buffer (pH 7.7), using a Polytron homogenizer, then centrifuged once and washed by an additional centrifugation at 27 000g for 15 min, at 4 °C. The final pellet was resuspended in Tris buffer and stored at −80 °C until use. Protein content of brain and cell membrane preparation homogenates was determined by the method of Bradford using bovine serum albumin as the standard.[65]
(§3) Binding of [^35S]GTPγS to membranes from CHO cells stably expressing the human opioid receptors was conducted according to the published procedures.[49],[64] Cell membranes (5–10 μg) in 20 mM HEPES, 10 mM MgCl2, and 100 mM NaCl (pH 7.4) were incubated with 0.05 nM [^35S]GTPγS, 10 μM GDP, and various concentrations of test compound in a final volume of 1 mL, for 60 min at 25 °C. Nonspecific binding was determined using 10 μM GTPγS, and the basal binding was determined in the absence of test ligand. Samples are filtered over glass Whatman glass GF/B fiber filters and counted as described for binding assays. All experiments were performed in duplicate and repeated at least three times.
(§4) Data were analyzed and graphically processed using the GraphPad Prism 5.0 Software (GraphPad Prism Software Inc., San Diego, CA). For in vitro assays, inhibition constant (Ki in nM), potency (EC50 in nM), and efficacy (% stimulation) values were determined from concentration–response curves by nonlinear regression analysis. The Ki values were determined by the method of Cheng and Prusoff.[66] In the [^35S]GTPγS binding assays, efficacy was determined relative to the reference full opioid agonists, DAMGO (MOR), DPDPE (DOR), and U69,593 (KOR). In vitro data are presented as mean ± SEM of three to four independent experiments each performed in duplicate. […] Each experimental group included six to seven mice. Data were statistically evaluated using one-way ANOVA with Tukey’s post hoc test for multiple comparisons with significance set at P < 0.05.

DOR [2] = target: T2, DOR (Homo sapiens, UniProt P41143); test: [35S]GTPγS binding assay, CHO-hDOR membranes; type: biochemical; settings: for increased agonist potency at DOR vs MOR: [35S]GTPγS EC50; for EC50: [35S]GTPγS, CHO human DOR membranes; for Emax: relative to reference full agonist DPDPE, read-out: DOR % stim.
T2 construct: host or cells: CHO (CHO-hDOR)
Protocol: as §1, §2, §3, §4

KOR [3] = target: T3, KOR (Homo sapiens, UniProt P41145); test: [35S]GTPγS binding assay, CHO-hKOR membranes; type: biochemical; settings: for EC50: [35S]GTPγS, CHO human KOR membranes, read-out: KOR EC50; for Emax: relative to reference full agonist U69,593, read-out: KOR % stim.; for functional profile at KOR (full/partial agonist): partial agonist <85% of the response to U69,593
T3 construct: host or cells: CHO (CHO-hKOR)
Protocol: as §1, §2, §3, §4

male CD1 mice = test: acetic acid-induced writhing assay after sc administration; type: in vivo, mouse; settings: for ED50: Mus musculus, 0.5 h, read-out: ED50 (95% CI), mice, sc, inhibition of writhing 30 min after drug administration; for ED50 (95% CI): mice, inhibition of writhing 30 min after drug administration
Protocol: Solutions of test compounds were prepared in sterile physiological 0.9% saline and further diluted to working doses in saline solution. Test compounds or saline (control) were administered by sc route in a volume of 10 μL/1 g of body weight. All doses are expressed in terms of salts. Separate groups of mice received the respective dose of compound, and individual mice were only used once for behavioral testing.
Writhing was induced in male CD1 mice by ip injection of a 0.6% acetic acid aqueous solution as described previously.[48],[62] Groups of mice were administered sc different doses of test compound or saline (control), and 5 min prior to testing (25 min after drug or saline), each animal received an ip injection of acetic acid solution. Each mouse was placed in individual transparent Plexiglas chambers, and the number of writhes was counted during a 10 min observation period. […] For the antagonism study, naloxone methiodide was sc co-administered with the respective opioid agonist, and writhing was assessed as described above.
as §4

MOR [4] = target: T1, MOR; test: competition radioligand binding, CHO cell membranes expressing human MOR, [3H]DAMGO
Protocol: as §2
(§5) Rat brain membranes were incubated with either [^3H]DAMGO (1 nM, 45 min, 35 °C) or [^3H][Ile^5,6]deltorphin II (0.5 nM, 45 min, 35 °C) for labeling MOR or DOR receptors, respectively. Guinea-pig brain membranes were incubated with [^3H]U69,593 (1 nM, 30 min, 30 °C) for labeling KOR. Binding assays with CHO cell membranes were conducted at 25 °C for 60 min using [^3H]DAMGO (1 nM) or [^3H]diprenorphine (0.2 nM) for labeling MOR or DOR, respectively. Nonspecific binding was determined using 10 μM naloxone (rodent brain) or 1–10 μM of the unlabeled counterpart of each radioligand (CHO cells). Reactions were terminated by rapid filtration through Whatman glass fiber GF/C filters. Filters were washed three times with 5 mL of ice-cold 50 mM Tris-HCl buffer (pH 7.4) using a Brandel M24R cell harvester (Gaithersburg, MD). Radioactivity retained on the filters was counted by liquid scintillation counting using a Beckman Coulter LS6500 (Beckman Coulter Inc., Fullerton, CA). All binding experiments were performed in duplicate and repeated at least three times.
(§6) aDetermined in competition radioligand binding assays using CHO cell membranes expressing
(§7) human MOR and DOR. Values represent the mean ± SEM of three independent experiments each

DOR [5] = target: T2, DOR; test: competition radioligand binding, CHO cell membranes expressing human DOR, [3H]diprenorphine
Protocol: as §2, §5, §6, §7

DOR [6] = target: T4, DOR (Rattus norvegicus, UniProt P33533); test: competition radioligand binding, rat brain membranes, [3H][Ile5,6]deltorphin II; settings: rat brain membranes; read-out: opioid receptor binding Ki DOR
T4 construct: Membranes were prepared from Sprague-Dawley rat brains or guinea-pig brains according to the described procedures; tissue Labortierkunde und Laborgenetik, Medizinische Universität Wien; host or cells: Sprague-Dawley rat brain without cerebella
Protocol: (§8) Competition binding assays using rat brain (MOR and DOR) and guinea-pig brain (KOR) membranes (Table 1) were performed according to published procedures.[44],[49] […] In addition, we have assessed binding at the human opioid receptors stably transfected in Chinese hamster ovary (CHO) cells (Table S1).
(§9) Membranes were prepared from Sprague-Dawley rat brains or guinea-pig brains according to the described procedures.[44],[45] Brains without cerebella were homogenized on ice in 5 vol/wt of ice-cold 50 mM Tris-HCl buffer (pH 7.4) and diluted in 30 vol/wt of the same buffer. After centrifugation at 40 000g for 20 min at 4 °C, the pellets were resuspended in 30 vol/wt of 50 mM Tris-HCl buffer (pH 7.4) and incubated at 37 °C for 30 min. The centrifugation step described above was repeated, and the final pellets were resuspended in 5 vol/wt of 50 mM Tris-HCl buffer (pH 7.4) containing 0.32 M sucrose and stored at −80 °C until use.
as §5, §4

KOR [7] = target: T5, KOR (Cavia porcellus, UniProt P41144); test: competition radioligand binding, guinea-pig brain membranes, [3H]U69,593; settings: guinea-pig brain membranes; read-out: opioid receptor binding Ki KOR
T5 construct: Membranes were prepared from Sprague-Dawley rat brains or guinea-pig brains according to the described procedures; tissue Labortierkunde und Laborgenetik, Medizinische Universität Wien; host or cells: guinea-pig brain without cerebella
Protocol: as §8, §9, §5, §4

MOR [8] = target: T6, MOR (Rattus norvegicus, UniProt P33535); test: competition radioligand binding, rat brain membranes, [3H]DAMGO; settings: for Ki: rat brain membranes, read-out: opioid receptor binding Ki MOR; for Ki ratio MOR/DOR/KOR: from Ki in rat (MOR, DOR) and guinea-pig (KOR) brain membranes
T6 construct: Membranes were prepared from Sprague-Dawley rat brains or guinea-pig brains according to the described procedures; tissue Labortierkunde und Laborgenetik, Medizinische Universität Wien; host or cells: Sprague-Dawley rat brain without cerebella
Protocol: as §8, §9, §5, §4

[9] = relative to reference full agonist DAMGO

Compound | EC50 (MOR [1]) | functional profile at MOR (full/partial agonist) (MOR [1]; full agonist ≥85% of the response to DAMGO) | MOR % stim. (MOR [1]; [9]) | Emax (MOR [1]; [9]) | increased agonist potency at DOR vs MOR (DOR [2]) | EC50 (DOR [2]) | Emax (DOR [2]) | EC50 (KOR [3]) | Emax (KOR [3]) | ED50 (male CD1 mice) | Ki (MOR [4]) | Ki (DOR [5]) | functional profile at KOR (full/partial agonist) (KOR [3]) | ED50 (95% CI) (male CD1 mice) | increased antinociceptive potency vs comparator (male CD1 mice; writhing assay, 3a vs 3b, 4a vs 4b, 16b vs 7a (so in the source)) | Ki (DOR [6]) | Ki (KOR [7]) | Ki (MOR [8]) | Ki ratio MOR/DOR/KOR (MOR [8])
CO[C@@]12CC[C@@H](N[C@@H](Cc3ccccc3)C(=O)O)[C@@H]3Oc4c(O)ccc5c4[C@@]31CCN(C)[C@@H]2C5 [Compound 4b] | 6.76 ± 3.16 nM | full agonist | 99 ± 8% | 99% | 14 times | 0.48 ± 0.16 nM | 94 ± 8% | 1170 ± 505 nM | 81 ± 9% | 0.579 mg/kg | 4.15 ± 0.47 nM | 1.12 ± 0.23 nM | – | – | – | – | – | – | –
CO[C@@]12CC[C@H](NCC(=O)O)[C@@H]3Oc4c(O)ccc5c4[C@@]31CCN(C)[C@@H]2C5 [Compound 2a] | 1.16 ± 0.59 nM | – | – | 99 ± 4% | – | – | – | 399 ± 119 nM | 87 ± 4% | 0.0357 mg/kg | 0.79 ± 0.08 nM | 18.2 ± 6.1 nM | full agonists | – | – | – | – | – | –
CO[C@@]12CC[C@H](N[C@@H](C)C(=O)O)[C@@H]3Oc4c(O)ccc5c4[C@@]31CCN(C)[C@@H]2C5 [Compound 3a] | – | – | – | 97 ± 5% | – | 9.55 ± 4.47 nM | 93 ± 9% | 214 ± 71 nM | 51 ± 3% | < 0.02 mg/kg | – | 26 ± 3.5 nM | – | 16.0 (5.45–47.0) μg/kg | 5 times | – | – | – | –
CO[C@@]12CC[C@@H](N[C@@H](C)C(=O)O)[C@@H]3Oc4c(O)ccc5c4[C@@]31CCN(C)[C@@H]2C5 [Compound 3b] | – | – | – | 87 ± 6% | – | 5.2 ± 1.7 nM | 104 ± 6% | 392 ± 160 nM | 64 ± 9% | 0.0863 mg/kg | – | 8.43 ± 2.1 nM | partial agonist | – | – | – | – | – | –
CO[C@@]12CC[C@@H](NC(C)C(=O)O)[C@@H]3Oc4c(O)ccc5c4[C@@]31CCN(C)[C@@H]2C5 (stereo in doubt) [Compound 15b, (2S)-2-[(4,5α-Epoxy-3-hydroxy-14β-methoxy-17-methylmorphinan-6β-yl)amino]propanoic Acid Dihydrochloride] | – | – | – | 102 ± 9% | 2–4 times | 5.46 ± 2.68 nM | 106 ± 6% | 1000 ± 192 nM | 86 ± 2% | – | – | 11.5 ± 2.6 nM | full agonists | – | – | 11.3 ± 0.9 nM | 142 ± 33 nM | – | –
CO[C@@]12CC[C@H](NC(C)C(=O)O)[C@@H]3Oc4c(O)ccc5c4[C@@]31CCN(C)[C@@H]2C5 (stereo in doubt) [Compound 15a, (2S)-2-[(4,5α-Epoxy-3-hydroxy-14β-methoxy-17-methylmorphinan-6α-yl)amino]propanoic Acid Dihydrochloride] | – | – | – | 100 ± 8% | – | 24.3 ± 5.3 nM | 106 ± 7% | 254 ± 118 nM | 67 ± 13% | – | – | 14.9 ± 1.9 nM | – | – | – | 10.4 ± 0.01 nM | 71.5 ± 9.6 nM | – | –
CO[C@@]12CC[C@H](N[C@@H](Cc3ccc(O)cc3)C(=O)O)[C@@H]3Oc4c(O)ccc5c4[C@@]31CCN(C)[C@@H]2C5.Cl.Cl [Compound 9a, (2S)-2-[(4,5α-Epoxy-3-hydroxy-14β-methoxy-17-methylmorphinan-6α-yl)amino]-3-(4-hydroxyphenyl)propionic Acid Dihydrochloride] | 1.87 ± 0.44 nM | – | – | 92 ± 2% | – | 1.76 ± 0.22 nM | 88 ± 6% | 100 ± 6 nM | 62 ± 8% | < 0.02 mg/kg | – | – | – | 14.6 (5.15–41.7) μg/kg | – | 2.18 ± 0.98 nM | 39.5 ± 0.2 nM | 0.83 ± 0.04 nM | –
CO[C@@]12CC[C@H](NCCCC(=O)O)[C@@H]3Oc4c(O)ccc5c4[C@@]31CCN(C)[C@@H]2C5 [Compound 21a] | 2.88 ± 0.82 nM | – | – | 103 ± 4% | – | 34.4 ± 6.5 nM | 103 ± 1% | 2030 ± 253 nM | 104 ± 9% | 0.0419 mg/kg | – | – | – | – | – | 12.5 ± 0.7 nM | 45.6 ± 4.4 nM | 0.77 ± 0.07 nM | 1/16/59
CO[C@@]12CC[C@H](NCCC(=O)O)[C@@H]3Oc4c(O)ccc5c4[C@@]31CCN(C)[C@@H]2C5 [Compound 20a, 3-[(4,5α-Epoxy-3-hydroxy-14β-methoxy-17-methylmorphinan-6α-yl)amino]propionic Acid Dihydrochloride] | 3.52 ± 1.65 nM | – | – | 99 ± 7% | – | 96.4 ± 8.7 nM | 97 ± 2% | 186 ± 15 nM | 78 ± 9% | 0.0312 mg/kg | – | – | – | – | – | 60 ± 1.9 nM | 182 ± 8 nM | 1.3 ± 0.08 nM | 1/46/140
